Reference: ChEMBL document CHEMBL1151308, “Acanthosterol sulfates A-J: ten new antifungal steroidal sulfates from a marine sponge Acanthodendrilla sp” (1998)
Activity calls are given as the source filed them. No cut-off for these calls is given here.

Assays:
Saccharomyces cerevisiae [1] = assay: Antifungal activity against Saccharomyces cerevisiae GT160-45c at 0.1 mg/disk; type: functional, organism-based
Saccharomyces cerevisiae [2] = assay: Antifungal activity against Saccharomyces cerevisiae A364A at 0.1 mg/disk; type: functional
Saccharomyces cerevisiae [3] = assay: Antifungal activity against Saccharomyces cerevisiae STX338-2C mutant at 0.1 mg/disk; type: functional
Saccharomyces cerevisiae [4] = assay: Antifungal activity against Saccharomyces cerevisiae 14028g mutant at 0.1 mg/disk; type: functional
Saccharomyces cerevisiae [5] = assay: Antifungal activity against Saccharomyces cerevisiae RAY-3Aa at 0.1 mg/disk; type: functional, organism-based

## CC(=O)O[C@@H]1C[C@]2(C)[C@H]3CC[C@]4(C)[C@@H]([C@H](C)[C@@H]5O[C@H]5[C@H](C)C(C)C)CC[C@H]4C3=CC[C@H]2[C@H](OS(=O)(=O)[O-])[C@H]1O.[Na+] [ACANTHOSTEROL SULFATE I]
Saccharomyces cerevisiae [1]
  Activity: inactive
Saccharomyces cerevisiae [2]
  inhibition zone (IZ): 7 mm
Saccharomyces cerevisiae [3]
  inhibition zone (IZ): 8 mm
Saccharomyces cerevisiae [4]
  inhibition zone (IZ): 9 mm
Saccharomyces cerevisiae [5]
  Activity: inactive

## CC(=O)O[C@@H]1C[C@]2(C)[C@H]3CC[C@]4(C)[C@@H]([C@H](C)[C@@H]5O[C@H]5[C@@H](C)C(C)C)CC[C@H]4C3=CC[C@H]2[C@H](OS(=O)(=O)[O-])[C@H]1O.[Na+] [ACANTHOSTEROL SULFATE J]
Saccharomyces cerevisiae [1]
  Activity: inactive
Saccharomyces cerevisiae [2]
  inhibition zone (IZ): 11 mm
Saccharomyces cerevisiae [3]
  inhibition zone (IZ): 10 mm
Saccharomyces cerevisiae [4]
  inhibition zone (IZ): 11 mm
Saccharomyces cerevisiae [5]
  Activity: inactive
